Reference: patent publication US20070258889A1, “NOVEL NANOPARTICLES AND USE THEREOF” (Montana State University, priority 2005, published 2007)
≈ marks a conversion by molar mass, not a printed value.

Key:
[1] = room temperature; cited from earlier work
tumor cells = details: cited from earlier work
tumor lung colonization = details: mouse, in vivo; cited from earlier work
tumor angiogenesis = details: mice; cited from earlier work
platlets and neutrophils = details: cited from earlier work
Solubility (saturation) = type: physicochemical; details: with 1% DMF, aqueous buffer, room temperature, solutions in which the protein cages are stable
[2] = Singlet oxygen production assay (TEMP to TEMPO, EPR); details: 20 μM reactive dye, 50 mM TEMP, DPBS pH 7.4; free dye
Procedure: In order to analyze the singlet O2 production by protein RuIphen composite, the conversion of TEMP to TEMPO by singlet O2 was monitored by EPR. Briefly, the light induced production of singlet O2 assay was conducted in a serum vial open to the air with vigorous stirring. The reaction was conducted in 50 mM TEMP with DPBS at pH 7.4. The each of the reactions were normalized to 20 μM reactive dye (RuIphen or Rose Bengal). At each time point, 100 μL of the solution was removed and added to 10 μL of 1M sodium azide to quench the singlet O2 production. Hsp G41CRu was labeled with two different loadings of RuIphen 51% and 82%. […] In order to probe the loss of EPR signal in the free Ru^∥bpy3 control, free Ru^∥bpy3 was illuminated in the presence of purchased TEMPO both in the presence and absence of molecular O2.
Singlet Oxygen Production Assay. In a 3 mL clear glass serum vial (Wheaton), 20 µM ruthenium (either free or attached to protein cage) and 50 mM 2,2,6,6-tetramethyl-4-piperidone (TEMP) final concentration was added to DPBS pH 7.4. […] For the oxygen-free reaction, the serum vials are sealed and degassed under nitrogen The light was quantitated using an Extech Instrument EasyView light meter to be 511, 700 I×. […]

## CC(=O)Oc1ccccc1C(=O)O [acetylsalicylic acid]
[1]
  solubility (saturation): ~18.5 mM (≈ 3330 µg/mL)

## CDPGYIGSRC [peptide 11]
Tumor cells
  invasion of basement membranes by tumor cells: effectively blocks invasion of basement membranes by tumor cells
Tumor lung colonization
  experimental tumor lung colonization: reduces experimental tumor lung colonization
Tumor angiogenesis
  tumor angiogenesis: inhibits tumor angiogenesis in mice
Platlets and neutrophils
  toxic effect on platelets and neutrophils: no toxic effect on these cells

## O=C1OC2(c3ccc(O)cc3Oc3cc(O)ccc32)c2ccccc21 [fluorescein]
Solubility (saturation)
  solubility: ~2 µM (≈ 0.665 µg/mL)

## COc1cccc2c1C(=O)c1c(O)c3c(c(O)c1C2=O)C[C@@](O)(C(=O)CO)C[C@@H]3O[C@H]1C[C@H](N)[C@H](O)[C@H](C)O1 [doxorubicin]
Solubility (saturation)
  solubility: ~2 µM (≈ 1.09 µg/mL)

## O=C([O-])c1c(Cl)c(Cl)c(Cl)c(Cl)c1-c1c2cc(I)c(=O)c(I)c-2oc2c(I)c([O-])c(I)cc12.[Na+].[Na+] [Rose Bengal]
[2]
  increase in the amount of TEMPO generated: 4 fold
